Results: PubChem BioAssay AID1354 (Sanford-Burnham Center for Chemical Genomics, 2008)
Active and inactive are the calls of the source.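 The calls were made as follows: active = survival over 30 points above compound-free thapsigargin wells at any thapsigargin dose; inactive = the rest.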

Tested on: Jurkat, thapsigargin-induced death, ATPlite luminescence, 24 h
Assay: ER stress cell death suppression in Jurkat – Jurkat T-cell leukemia, ATP content luminescence (AID 1354)
Settings: at 25 µM, stronger effect = higher value
[1] = measured here: survival at thapsigargin 10 uM
[2] = measured here: survival at thapsigargin 15 uM

| SMILES | survival (thapsigargin 7.5 uM) | survival [1] | survival [2] |
| --- | --- | --- | --- |
| CCCOc1ccc(C2Nc3ccccc3NC3=C2C(=O)CC(c2ccc(OC)c(OC)c2)C3)cc1 (stereo not drawn) | 44% (inactive) | 17% | 1% |
| COc1ccc(C2CC(=O)C3=C(C2)Nc2ccccc2NC3c2cccc(C(F)(F)F)c2)cc1OC (stereo not drawn) | 42% (inactive) | 19% | 1% |
| O=C1CC(c2ccccc2)CC2=C1C(c1c(F)cccc1Cl)Nc1ccccc1N2 (stereo not drawn) | 39% (inactive) | 23% | 1% |
| COc1ccc(C2CC(=O)C3=C(C2)Nc2ccccc2NC3c2ccccc2C(F)(F)F)cc1OC (stereo not drawn) | 44% (inactive) | 32% | 2% |
| COc1ccc(C2CC(=O)C3=C(C2)Nc2ccccc2NC3c2cc(C)ccc2C)cc1 (stereo not drawn) | 54% (inactive) | 37% | 2% |
| COc1ccc(C2CC(=O)C3=C(C2)Nc2ccccc2NC3c2cccc(Oc3ccccc3)c2)cc1OC (stereo not drawn) | 51% (inactive) | 37% | 7% |
| CC1(C)CC(=O)C2=C(C1)Nc1ccccc1NC2c1ccc(-c2ccccc2)cc1 (stereo not drawn) | 14% (inactive) | 3% | 0% |
| CSc1ccc(C2Nc3ccccc3NC3=C2C(=O)CC(c2ccccc2)C3)cc1 (stereo not drawn) | 44% (inactive) | 23% | 4% |
| CCOc1cccc(C2Nc3ccccc3NC3=C2C(=O)CC(c2ccc(OC)cc2)C3)c1 (stereo not drawn) | 46% (inactive) | 32% | 1% |
| COc1ccc(C2CC(=O)C3=C(C2)Nc2ccccc2NC3c2cccc(Br)c2)cc1OC (stereo not drawn) | 34% (inactive) | 18% | 1% |
| CCOc1cc(C2Nc3ccccc3NC3=C2C(=O)CC(c2ccc(OC)cc2)C3)cc(Cl)c1O (stereo not drawn) | 55% (inactive) | 35% | 2% |
